The numbers were not newly measured in publication PMC8894159, “Paltusotine, a novel oral once-daily nonpeptide SST2 receptor agonist, suppresses GH and IGF-1 in healthy volunteers” (Pituitary, 2022), which cites them from elsewhere.

Details of data set [1]: method as in PMID 25260838. To be noted: patients taking pasireotide; cited from earlier work.
Data set [2] concerns IGF-1. Also noted: method as in PMID 25664604. The note with it: twice-daily oral preparation; patients previously controlled on depot preparations; cited from earlier work.

Consider pasireotide, for which, in data set [1], the patients with hyperglycemia/diabetes entry was “approximately 57%”. On to octreotide, for which the “patients maintaining IGF-1 control” value in data set [2] is recorded as 58%.
